Results as given in patent EP0523085B1, “PEROXY ACID BLEACH PRECURSORS AND DETERGENT COMPOSITIONS CONTAINING THEM” (priority 1990, dated 1991).
Like-named read-outs stand apart in the source and are kept apart here. Values belong to the compound of their own block, whether it stands above or below them.

Legend:
[1] = water solubility at 10°C (saturated solution in distilled water); format: physicochemical
Protocol: For the purposes of the present invention the solubility of a precursor in water is defined as the weight of the compound that can be dissolved in 100ml distilled water at 10°C, expressed on a percentage basis. Precursors in accordance with the invention have water solubilities of at least 25% by weight, more preferably at least 50% and most preferably at least 75%.
The water solubility of this material was determined by cooling 2.3g distilled water to 10°C and adding the precursor until no further material would dissolve. A slight excess was then added and the temperature raised to 25°C to give complete solution before recooling to 10°C, ensuring that crystallisation of the precursor took place from a saturated solution.

[2] = perhydrolysis with sodium perborate tetrahydrate at 10°C, iodometric titration; settings: for rates of perhydrolysis, comparison of the two precursors: each predissolved (KDAES in distilled water, TAED in dimethyl formamide); for time for dissolution and perhydrolysis to be substantially complete: precursor added in solid form, KDAES assumed to be 82% active
Protocol: A jacketed 1 litre glass vessel fitted with a magnetic stirrer was used to carry out the perhydrolysis and the temperature of the solution was controlled at 10°C by means of a Thermomix (RTM) cooling unit which was used to circulate the cooled water through a jacket around the perhydrolysis vessel
The value obtained for the blank was subtracted from the values obtained at the various time intervals to give the figure from which the percentage perhydrolysis was calculated.

Compound: CC(=O)N(CCS(=O)(=O)[O-])C(C)=O.[K+] [KDAES, potassium N,N-diacetylaminoethane sulphonate]
solubility ([1]; distilled water, 10°C): 66.6%
amount of the precursor dissolved ([1]; in 2.3g distilled water at 10°C): 4.71 g
rates of perhydrolysis, comparison of the two precursors [2]: broadly similar
time for dissolution and perhydrolysis to be substantially complete [2]: ≤ 5 min

Compound: tetra acetyl ethylene diamine [TAED, reference compound]
rates of perhydrolysis, comparison of the two precursors [2]: broadly similar
time for dissolution and perhydrolysis to be substantially complete [2]: at least 30 minutes

solubility [1]: 75.6%
Compound: CC(=O)N(CCC[N+](C)(C)C)C(C)=O.[Br-] [DTAPB, N,N-diacetyl trimethylammonio propylamine bromide]
precursor perhydrolysed within 5 minutes ([2]; solid product, on the basis of a purity of 97.6%): approx. 92%
